The text below walks through data of patent US6806267B1, “Apoptosis-inducing compounds” (priority 1998, dated 2004).

One data set deals with K562 cells. The experiment in a line: Apoptosis in K562 cells, cytospin and staining. Format: cell-based, human. The settings on record: K562, 200 μM 1 hour, then PBOX-6 10 μM 16 hours.
Data set [1] relates to Jurkat cells. Format: cell-based, human. The settings on record: 200 μM.
For another data set, the system named is JNK1 and JNK2. In kind it is cell-based, human. The settings on record: K562.
Data set [2] relates to Jurkat cells. Format: cell-based, human. The settings on record: 200 μM. How it is done: This assay was set up as described by Kohn et al., 1976 with the following modifications.
Cells were seeded at 0.4×10^6 cells/ml and were in the logarithmic phase of growth. […] Cells harvested for the experiments were at a density of 2×10^6 cells/ml.
Cells (1×10^6) were labelled with [^3H] thymidine (sp. act. 2 Ci/mmol) (0.2 μCi/ml) and 1 μM unlabelled thymidine, and incubated for 20 hr. Cells were harvested by centrifugation at 500×g for 5 mins following by two washes in PBS and the pellet was resuspended in 3 ml of PBS. Cells were aliquoted into 1 ml amounts in a 24 well plate and allowed to recover for 1 hr at 37° C. before treating with indicated compounds. Following treatment, cells were washed once in PBS and resuspended in 250 μl of PBS. An aliquot of cells (200 μl) was loaded directly onto a 25 mm diameter glass fiber filter, pore size of 0.2 μM. The cells were lysed on the filter by the addition of 5 ml lysis buffer (2% (w/v) SDS, 10 mM disodium EDTA (pH 10) supplemented with 0.5 mg/ml proteinase K. The lysis buffer was allowed to flow slowly through the filter without suction. Filters were washed using 3 ml wash solution (0.02M Na3EDTA pH 10) allowing it to flow without suction. Filters were eluted in the dark with an alkaline solution (0.04M EDTA plus tetrapropylammonium hydroxide (10% in H2O ) added in the amount required to give pH 12.1). The elution apparatus consisted of a filter funnel with output tubing passing through a peristaltic pump to a collector. Elution took place overnight at a flow rate of 0.05 ml/min. Following elution, filters were treated with 0.4 ml HCl (1N) for 1 hr at 70° C. followed by 2.5 ml NaOH (0.4N) for 30 min at room temp. Scintillation fluid (10 ml) was added and radioactivity remaining on the filters was determined by scintillation counting.
This is another data set of the same source.

For data set [3], the target named is T1, peripheral-type benzodiazepine receptor (PBR) (Homo sapiens, UniProt P30536).
T1 construct: Cell homogenates (50 μg protein) were incubated with 0.5-50 nM [^3H]; PK 11195; endogenous in cells; host or cells: HL-60 cell homogenate
The data set is described as follows: Radioligand binding assay, inhibition of [^3H]PK 11195 binding to HL-60 homogenates. The method, then: HL-60 cells were harvested by centrifugation at 600 g for 5 min and washing in phosphate-buffered saline. The resulting cell pellet was homogenised in 50 mM Tris/HCl buffer, pH 7.4 (2 ml), using an Ultraturrax homogeniser (10 sec) and then passed 5 times through a 21 gauge needle. Cell homogenates (50 μg protein) were incubated with 0.5-50 nM [^3H] PK 11195 in 50 mM Tris/HCl buffer, pH 7.4 (incubation buffer), in a total volume of 0.5 ml on ice. Total and non-specific/non-saturable binding in each case was determined in the absence and presence of 10 μM unlabelled PK 11195 respectively. All samples were incubated in triplicate for 60 min. The incubation mixtures were then filtered and counted as previously described (O'Beirne, et al., 1988). When testing the potency of a compound to inhibit [^3H] PK 11195 binding, samples were incubated with 2 nM [3H] PK 11195 and various concentrations (0.1 nM to 1 μM) of compound and subsequently treated exactly as above. The resulting Ki values were then generated by the use of the computer programs EBDA and LIGAND.
The amount of radioactivity bound in the presence of the displacer was expressed as a percentage of control bonding and the values represent the mean±SEM of triplicate determinations from one representative experiment performed at least twice. The Ki values were obtained as described in Methods section.

For data set [4], the system named is PARP (poly ADP-ribose polymerase). The data set is described as follows: Western blot of PARP cleavage in Hela cells. In kind it is cell-based, human. How it is done: CML cells were seeded at 2×10^6 cells in 5 mls of growth medium, and treated with 10 μM PBOX-6 for 16 and 24 hr. Hela cells were seeded at 1×10^6 cells per 25 cm^2 flask. Following a 24 hour incubation, the cells were treated with PBOX-3 for a further 48 hours and the cells were scraped up. Cells were then centrifuged at 500 g for 5 min, the supernatant was removed and the pellet was resuspended in 200 μl of PARP sample buffer (62.5 mM Tris/HCl pH 6.8, 6 M urea, 10% (w/v) glycerol, 2% (w/v) SDS, 0.00125% bromophenol blue, and 5% (v/v) β-mercaptoethanol was added immediately before use). Samples were sonicated for 15 sec before aliquoting into 15 μl volumes. Samples were stored at −20° C. until use. 10-15 μl of thawed samples were resolved directly on a 10% polyacrylamide gel and transferred onto PVDF membrane at room temperature using wet transfer apparatus. After transfer, the membrane was blocked overnight in PBS containing 5% dry milk (Marvel). After blocking, the membrane was washed in PBST for 2×2 minutes before incubating for 1 hr with anti-PARP antibody (2 μg/ml in PBST containing 1% dry milk). Following incubation the membrane was washed for 20 minutes in PBST and incubated with goat anti mouse HRP conjugated secondary antibody (1:1000 dilution in PBST containing 1% dry milk). After washing in PBST for 30 minutes, ECL was used to visualise the proteins. […]
In general terms: In western blotting, separated proteins are transferred to a membrane and probed.

A further data set concerns HL-60 cells. The experiment in a line: Apoptosis in HL-60 cells, cytospin and Rapi-Diff staining.

T1 sequence (P30536 whole entry): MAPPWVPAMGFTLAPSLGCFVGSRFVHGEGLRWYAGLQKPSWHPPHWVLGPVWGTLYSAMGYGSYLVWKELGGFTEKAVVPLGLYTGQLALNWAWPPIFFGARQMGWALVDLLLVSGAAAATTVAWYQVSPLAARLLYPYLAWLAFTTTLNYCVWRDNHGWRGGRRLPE

With `C[C@@H](CN1CC(=O)NC(=O)C1)N1CC(=O)NC(=O)C1` [ICRF 187, reference compound], the “effect of pretreatment on PBOX-6 induced apoptosis” value in the data set on K562 cells is given as “reduced but did not completely inhibit”. The “effect of pretreatment on etoposide induced apoptosis” value in the data set with Jurkat cells [1] is listed as “inhibited apoptosis induced by etoposide”. In the data set with JNK1 and JNK2, the “effect of Topo II inhibitor pretreatment on PBOX-6 induced JNK activation” value is reported as “failed to prevent against PBOX-6 induced activation of JNK”. The “effect of pretreatment on etoposide induced DNA strand breaks” value in the data set on Jurkat cells [2] is “prevented etoposide induced DNA strand breaks”.

The Ki is the equilibrium dissociation constant of an inhibitor or competing ligand from its target. A higher Ki goes with weaker binding. In data set [3], `CC(=O)OC1=C(c2ccccc2)Oc2cc3ccccc3cc2-n2cccc21` [PBOX-3, 4-Acetoxy-5-phenylnaphto[2,3-b]pyrrolo[1,2-d][1,4]oxazepine] registered an inhibition constant (Ki) of 6 ± 1.9 nM. Further, the PARP cleavage entry in data set [4] is recorded as “induced PARP cleavage”. Also, the degree of necrosis entry in the data set with HL-60 cells (HL-60 cells, 10 μM, 16 hours) is “negligible”. The cytotoxicity at 10 µM in the data set on HL-60 cells (Homo sapiens, HL-60, 16 h, read-out: % Apoptosis) stood at 23.5 ± 2.1%.
